Data from PubChem BioAssay (NCI).
Values joined by “and” are separate entries in the source; they are usually repeats but may differ in a detail not shown here. Equal entries are not always repeated.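 The compound was tested at five concentrations on cells cultured in 96-well plates, with a 48-hour exposure period. GI50 is the concentration that inhibits growth by half. TGI denotes the concentration required for complete inhibition of growth.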

Key:
Assay in all cases: NCI tumour cell line growth inhibition, 48 h
[1] = test system: UO-31 renal
[2] = test system: SR leukemia
[3] = test system: RXF 393 renal
[4] = test system: MALME-3M melanoma
[5] = test system: U251 CNS
[6] = test system: A549 NSCLC
[7] = test system: OVCAR-8 ovarian
[8] = test system: HOP-92 NSCLC
[9] = test system: SN12C renal
[10] = test system: HL-60(TB) leukemia

Compound | GI50 [1] | TGI [1] | GI50 [2] | TGI [2] | GI50 [3] | TGI [3] | GI50 [4] | TGI [4] | GI50 [5] | TGI [5] | GI50 [6] | TGI [6] | GI50 [7] | TGI [7] | GI50 [8] | TGI [8] | GI50 [9] | TGI [9] | GI50 [10] | TGI [10]
O=C(c1ccc(F)c(F)c1Nc1ccc(I)cc1F)N1CC(O)([C@@H]2CCCCN2)C1 | 0.0596 µM and 0.538 µM | 13.8 µM and > 10 µM | 1.64 µM and 3.35 µM | 9.66 µM and > 10 µM | 0.743 µM and 0.396 µM | 7.17 µM and > 6.97 µM | < 0.01 µM and 0.00181 µM | 0.0133 µM | 0.492 µM and 0.958 µM | 17.9 µM and > 10 µM | 0.25 µM and 0.48 µM | 17 µM and > 10 µM | 10.5 µM and > 10 µM | 24.5 µM and > 10 µM | 0.0207 µM and 0.0577 µM | 0.239 µM and 0.65 µM | 2.03 µM and 1.14 µM | 18.7 µM and > 10 µM | < 0.0172 µM and 0.00962 µM | 2.33 µM and > 10 µM
CS(=O)(=O)CCCn1c(=O)c(Oc2ccc(F)cc2F)cc2cnc(NC3CCOCC3)nc21 | > 25 µM | > 25 µM | > 25 µM | > 25 µM | > 25 µM | > 25 µM | > 25 µM | > 25 µM | > 25 µM | > 25 µM | > 25 µM | > 25 µM | > 25 µM | > 25 µM | > 25 µM | > 25 µM | > 25 µM | > 25 µM | > 25 µM | > 25 µM
CCN(CC)CCOc1ccc(/C=C2\CC3C4CC=C5C[C@@H](O)CC[C@]5(C)C4CC[C@]3(C)C2=O)cc1OC (some centres undefined) | – | > 100 µM | 0.955 µM | 3.9 µM | 5.64 µM | 21.5 µM | 2.01 µM | 12.3 µM | 2.41 µM | 6.37 µM | 11.6 µM | 26.1 µM | 1.92 µM | 3.74 µM | 1.45 µM | 32.2 µM | 3.54 µM | 19.4 µM | 10.1 µM | 22.3 µM
COc1cc(-c2nn(-c3cccc(NC(=O)Nc4ccc(Cl)c(Cl)c4)c3)cc2-c2ccncc2)ccc1Cl | 0.845 µM | 4.96 µM | 0.932 µM | 2.8 µM | 0.859 µM | 2.44 µM | 0.926 µM | 2.42 µM | 0.82 µM | 2.47 µM | 0.745 µM | > 50 µM | 0.931 µM | 3.61 µM | 0.151 µM | 1.47 µM | 1.47 µM | > 50 µM | 1.66 µM | > 50 µM
CCCCCCC[CH2][Sn]1([CH2]CCCCCCC)[O]C(=O)c2cccnc2[S]1 | > 100 µM | > 100 µM | > 100 µM | > 100 µM | > 100 µM | > 100 µM | > 100 µM | > 100 µM | > 100 µM | > 100 µM | > 100 µM | > 100 µM | > 100 µM | > 100 µM | > 100 µM | > 100 µM | > 100 µM | > 100 µM | > 100 µM | > 100 µM
O=C(c1ccc(Cl)cc1)c1cnc(Nc2ccccc2Cl)s1 | – | 50.1 µM | – | > 100 µM | – | 42.8 µM | – | 46.7 µM | – | > 80.9 µM | – | 60.3 µM | – | > 71.1 µM | – | 49.5 µM | – | 52.1 µM | – | > 100 µM
O=C(CC(O)(C(F)(F)F)C(F)(F)F)c1cc(CC(=O)C(O)(C(F)(F)F)C(F)(F)F)cc(CC(=O)C(O)(C(F)(F)F)C(F)(F)F)c1 | – | 3.84 µM | – | > 10 µM | – | 4.43 µM | – | 6.33 µM | – | 6.4 µM | – | 5.62 µM | – | 6.91 µM | – | 3.35 µM | – | 6.71 µM | – | > 10 µM
COC1C(O)=C2C(=O)O/C(C)=C/C=C/C=C/C=C\CC(c3ccccc3)NC(=O)\C=C/C=C\C=C\C=C\[C@@]2(C)[C@@H]1O (some centres undefined) | – | 0.0607 µM | – | 0.165 µM | – | 0.0962 µM | – | 0.329 µM | – | 0.0195 µM | – | 0.0445 µM | – | 0.243 µM | – | < 0.0199 µM | – | 0.538 µM | – | 0.0421 µM
Cc1ccc(/C=C/c2c(C(=O)/C=C/c3ccc(C(F)(F)F)cc3)c(C)nc3ccccc23)cc1 | 1.01 µM | 2.17 µM | 0.451 µM | 4.97 µM | 1.12 µM | 2.41 µM | 1.7 µM | 3.08 µM | 1.47 µM | 3.13 µM | 2.03 µM | 4.76 µM | 1.88 µM | 6.43 µM | 1.43 µM | 2.98 µM | 1.51 µM | 2.97 µM | 1.25 µM | 3.66 µM
Nc1c(C(=O)Nc2cccc(Br)c2)sc2nc3c(cc12)C(=O)CCC3 | 3.07 µM | > 100 µM | 0.525 µM | > 100 µM | 0.372 µM | 15.9 µM | 0.579 µM | > 100 µM | 0.517 µM | > 100 µM | 0.5 µM | > 100 µM | 33.7 µM | > 100 µM | 0.64 µM | 86.2 µM | 0.779 µM | > 100 µM | 0.408 µM | > 100 µM
CCCCCCNC(=O)c1nc(-c2ccccc2)oc1Cc1ccc(OP(=O)(O)O)cc1 | 12.6 µM | 26.8 µM | 21.5 µM | 50.2 µM | 16.7 µM | 31.3 µM | 19.3 µM | 37 µM | 15.7 µM | 29.9 µM | 18 µM | 36 µM | 20.2 µM | 45.6 µM | 14.2 µM | 27.9 µM | 17 µM | 32.9 µM | 25.2 µM | 62.4 µM
Cn1cc(C2=C(c3cn(C)c4cc(C(N)=O)ccc34)C(=O)NC2=O)c2ccccc21 | 1.81 µM | > 20.1 µM | 0.656 µM | > 22.8 µM | 0.559 µM | 1.95 µM | 4.2 µM | > 25 µM | 1.04 µM | > 25 µM | 1.66 µM | > 25 µM | 1.67 µM | > 25 µM | 2.15 µM | 24.5 µM | 1.91 µM | 13.8 µM | 0.769 µM | 3.48 µM
